Columns and labels:
HIV-1 Env = settings: from Ferrer et al., Nature Struct. Biol. 1999, given for comparison; read-out: IC50, fusion inhibitory activity; cited from earlier work
[1] = target: HIV-1 (LAV) Env protein on effector cells (gp120/gp41; gp41 pre-hairpin fusion intermediate) (HIV-1 (LAV)) (UniProt P03377); experiment: cell-based or functional assay
[2] = tested on: HIV Env-mediated cell fusion; experiment: vaccinia virus-based reporter gene assay of HIV Env-mediated cell fusion (B-SC-1 target and effector cells, soluble CD4); design: species or system HIV-1; settings: relative to both N35CCG-N13 and NCCG-gp41
[3] = target: HIV-1 (LAV) Env protein on effector cells (gp120/gp41; gp41 pre-hairpin fusion intermediate) (HIV-1 (LAV), UniProt P03377 517-861); experiment: cell-based or functional assay

Molecule: enfuvirtide
- IC50 (HIV-1 Env): ~50 nM

Molecule: N36 peptide (residues 546-581 of HIV-1 Env) (from UniProt P04578 546-581)
- IC50, inhibition of HIV-1 Env-mediated cell fusion (vaccinia reporter gene assay, beta-galactosidase) [1]: 16400 nM

Molecule: N34CCG (MGSSHHHHHHSSGLVPRGSHMSGIVQQQNNLLRAIEAQQHLLQLTVWGIKQCCGR)
- fold lower inhibitory activity [2]: 5-6 fold

B1: 6H-N34CCG, disulfide-linked trimer (designed binder)
chain: MGSSHHHHHHSSGLVPRGSHMSGIVQQQNNLLRAIEAQQHLLQLTVWGIKQCCGR
- IC50, inhibition of HIV Env-mediated cell fusion (vaccinia reporter gene assay, beta-galactosidase) [3]: 96 nM

From patent US20060165715A1, “Gp41 inhibitor” (priority 2001, published 2006)
